Measurements taken from patent US20240041971A1, “A PROCESS OF PREPARATION OF FLOUR MIX AND ITS USE FOR THE TREATMENT OF DIABETES” (priority 2020, published 2024).

How the values were obtained:
Format in all cases: in vivo, Rats
[1] = system: Streptozotocin-nicotinamide induced Type-2 diabetes (T2DM); assay: Streptozotocin-nicotinamide induced Type-2 diabetes: Glycosylated Haemoglobin (HbA1c); conditions: 5 mg/kg oral gavage
Method: (§1) The objective of the study is to evaluate pharmaceutical preparation in Type-2 diabetes mellitus (T2DM) and to compare efficacy of these in comparison to standard hypoglycemic agent pioglitazone.
(§2) Experimental model: Streptozotocin-nicotinamide induced Type-2 diabetes (T2DM): Single intraperitoneal injection of nicotinamide and streptozotocin was administered. Dose: STZ (45 mg/kg for rats)+Nicotinamide (230 mg/kg for rats) for T2DM pharmaceutical preparation (45.90 & 180 mg/kg). Route: STZ & Nicotinamide were administered intraperitoneally (i.p.). Pharmaceutical preparation & pioglitazone were administered per orally (oral gavage). Volume Administered: Rat—5 mL/kg Animals: Rats of Wistar strain weighing from 150-200 g of either sex used for the study. The animals were housed under optimal laboratory conditions, maintained on a natural (12 h) light and (12 h) dark cycle and had free access to food and water ad libitum. Animals were acclimatized to laboratory conditions before the tests. Study Design: Animals were divided into 6 groups of 5-8 animals in each group: • a) Group I: Control or vehicle treated group • b) Group II: Type 2 diabetic group • c) Group III: Diabetic animals+pharmaceutical preparation (45 mg/kg) • d) Group IV: Diabetic animals+pharmaceutical preparation (90 mg/kg) • e) Group V: Diabetic animals +pharmaceutical preparation (180 mg/kg) • f) Group VI: Diabetic animals+Pioglitazone (5 mg/kg)
(§3) Pharmaceutical preparation was administered after confirmation of diabetes for 28 days.
Parameters to be evaluated: The following parameters were evaluated after confirmation of diabetes on day 1, 7, 14, 21 and 28 days. • a) Body weight, water and food intake was monitored. • b) Blood Glucose Level: Glucose was estimated using diagnostic kits by GOD-POD method and the experiment was conducted following the manufacturer's instructions. • c) Estimation of Glycosylated Haemoglobin (HbA1c): HbA1c is a good indicator of protein glycosylation. Excess of glucose conjugates with proteins to form glycosylated moieties. It was estimated by ion-resin method using commercial kits.

[2] = system: Streptozotocin-nicotinamide induced Type-2 diabetes (T2DM); assay: Streptozotocin-nicotinamide induced Type-2 diabetes: plasma glucose; conditions: 5 mg/kg oral gavage
Method: as §1, §2, §3
Parameters to be evaluated: The […]) Body weight, water and food intake was monitored. • b) Blood Glucose Level: Glucose was estimated using diagnostic kits by GOD-POD method and the experiment was conducted following the manufacturer's instructions. • c) Estimation of Glycosylated Haemoglobin (HbA1c): HbA1c is a good indicator of protein glycosylation. Excess of glucose conjugates with proteins to form glycosylated moieties. It was estimated by ion-resin method using commercial kits.

[3] = system: Streptozotocin (STZ) induced type 1 diabetes (T1DM); assay: Plasma insulin level (ELISA) in STZ induced type 1 diabetes; conditions: 10 IU/kg subcutaneous
Method: The objective of the study is to evaluate the pharmaceutical preparation in Type-1 Diabetes Mellitus (T1DM) and to compare the efficacy in comparison to standard hypoglycemic agents as insulin. Experimental model: Streptozotocin (STZ) induced type 1 diabetes (T1DM). Dose: STZ (45 mg/kg for rats) for T1DM Route: STZ was administered intraperitoneally (i.p.). Pharmaceutical preparation was administered peroral (p.o.) in three doses. Animals: Rats of Wistar or Sprague Dawley strain weighing from 150-200 g of either sex. The animals were housed under optimal laboratory conditions, maintained on a natural (12 h) light and (12 h) dark cycle and have free access to food and water ad libitum. Animals were acclimatized to laboratory conditions before the tests. Study Design: Animals were divided into 8 groups of 10 animals in each group. • a) Group I: Control or vehicle treated group • b) Group II: Type 1 diabetic group • c) Group III: pharmaceutical preparation (90 mg/kg)+Diabetic animals • d) Group IV: pharmaceutical preparation (180 mg/kg)+Diabetic animals • e) Group V: pharmaceutical preparation (360 mg/kg)+Diabetic animals • f) Group VI: Satcol (60 mg/kg)+Diabetic animals • g) Group VII: pharmaceutical preparation (90 mg/kg)+Insulin (10IU)+Diabetic animals • h) Group VIII: Insulin (10IU)+Diabetic animals Drugs were administered for 28 days after confirmation of diabetes. Parameters to be evaluated: […]) Body weight, water and food intake was monitored weekly. • b) Blood Glucose Level: Glucose was estimated using diagnostic kits by GOD-POD method and the experiment was conducted following the manufacturer's instructions. • c) Oral Glucose Tolerance Test (OGTT): An oral glucose tolerance test was carried out in conscious rats. For this the rats was fasted overnight and glucose (2 g/kg b.w.) was given from 30% solution by oral gavage. Tail blood samples was collected before glucose load and sequentially for every half an hour after glucose load upto 90 minutes and was immediately analysed for glucose. • d) Measurement of Plasma Insulin Level: Insulin was estimated using insulin ELISA kit (LINCO) and the experiment was conducted following the manufacturer's instructions. It is a solid phase sandwich enzyme-linked immunosorbent assay (ELISA), which uses a microtitre plate reader at 450 nm. Concentrations of insulin were calculated from plotted standard curves. All results were expressed as Mean±SEM. The intergroup variation was measured by one-way analysis of variance (ANOVA) followed by Tukey's test. Statistical significance was considered at P<0.05. The statistical analysis was done using the SPSS Statistical Software version 16 (SPSS Inc. 233 South Wacker Drive, 11th Floor Chicago, IL 60606-6412).

[4] = system: Streptozotocin (STZ) induced type 1 diabetes (T1DM); assay: Streptozotocin (STZ) induced type 1 diabetes: plasma glucose, body weight, food intake, water intake, urine output; conditions: 10 IU/kg subcutaneous
Method: The objective of the study is to evaluate the pharmaceutical preparation in Type-1 Diabetes Mellitus (T1DM) and to compare the efficacy in comparison to standard hypoglycemic agents as insulin. Experimental model: Streptozotocin (STZ) induced type 1 diabetes (T1DM). Dose: STZ (45 mg/kg for rats) for T1DM Route: STZ was administered intraperitoneally (i.p.). Pharmaceutical preparation was administered peroral (p.o.) in three doses. Volume Administered: Rat—5 ml/kg Animals: Rats of Wistar or Sprague Dawley strain weighing from 150-200 g of either sex. The animals were housed under optimal laboratory conditions, maintained on a natural (12 h) light and (12 h) dark cycle and have free access to food and water ad libitum. Animals were acclimatized to laboratory conditions before the tests. […] Parameters to be evaluated: The following parameters were evaluated at confirmation of diabetes and after 28 days of treatment. • a) Body weight, water and food intake was monitored weekly. • b) Blood Glucose Level: Glucose was estimated using diagnostic kits by GOD-POD method and the experiment was conducted following the manufacturer's instructions. • c) Oral Glucose Tolerance Test (OGTT): An oral glucose tolerance test was carried out in conscious rats. For this the rats was fasted overnight and glucose (2 g/kg b.w.) was given from 30% solution by oral gavage. Tail blood samples was collected before glucose load and sequentially for every half an hour after glucose load upto 90 minutes and was immediately analysed for glucose. • d) Measurement of Plasma Insulin Level: Insulin was estimated using insulin ELISA kit (LINCO) and the experiment was conducted following the manufacturer's instructions. It is a solid phase sandwich enzyme-linked immunosorbent assay (ELISA), which uses a microtitre plate reader at 450 nm. Concentrations of insulin were calculated from plotted standard curves. All results were expressed as Mean±SEM. The intergroup variation was measured by one-way analysis of variance (ANOVA) followed by Tukey's test. Statistical significance was considered at P<0.05. The statistical analysis was done using the SPSS Statistical Software version 16 (SPSS Inc. 233 South Wacker Drive, 11th Floor Chicago, IL 60606-6412).

[5] = system: Streptozotocin (STZ) induced type 1 diabetes (T1DM); assay: Oral Glucose Tolerance Test (OGTT) in STZ induced type 1 diabetes; conditions: 10 IU/kg subcutaneous
Method: The objective of the study is to evaluate the pharmaceutical preparation in Type-1 Diabetes Mellitus (T1DM) and to compare the efficacy in comparison to standard hypoglycemic agents as insulin. Experimental model: Streptozotocin (STZ) induced type 1 diabetes (T1DM). Dose: STZ (45 mg/kg for rats) for T1DM Route: STZ was administered intraperitoneally (i.p.). Pharmaceutical preparation was administered peroral (p.o.) in three doses. Animals: Rats of Wistar or Sprague Dawley strain weighing from 150-200 g of either sex. The animals were housed under optimal laboratory conditions, maintained on a natural (12 h) light and (12 h) dark cycle and have free access to food and water ad libitum. Animals were acclimatized to laboratory conditions before the tests. Study Design: Animals were divided into 8 groups of 10 animals in each group. • a) Group I: Control or vehicle treated group • b) Group II: Type 1 diabetic group • c) Group III: pharmaceutical preparation (90 mg/kg)+Diabetic animals • d) Group IV: pharmaceutical preparation (180 mg/kg)+Diabetic animals • e) Group V: pharmaceutical preparation (360 mg/kg)+Diabetic animals • f) Group VI: Satcol (60 mg/kg)+Diabetic animals • g) Group VII: pharmaceutical preparation (90 mg/kg)+Insulin (10IU)+Diabetic animals • h) Group VIII: Insulin (10IU)+Diabetic animals Drugs were administered for 28 days after confirmation of diabetes. Parameters to be evaluated: The following parameters were evaluated at confirmation of diabetes and after 28 days of treatment. • a) Body weight, water and food intake was monitored weekly. • b) Blood Glucose Level: Glucose was estimated using diagnostic kits by GOD-POD method and the experiment was conducted following the manufacturer's instructions. • c) Oral Glucose Tolerance Test (OGTT): An oral glucose tolerance test was carried out in conscious rats. For this the rats was fasted overnight and glucose (2 g/kg b.w.) was given from 30% solution by oral gavage. […] for glucose. • d) Measurement of Plasma Insulin Level: Insulin was estimated using insulin ELISA kit (LINCO) and the experiment was conducted following the manufacturer's instructions. It is a solid phase sandwich enzyme-linked immunosorbent assay (ELISA), which uses a microtitre plate reader at 450 nm. Concentrations of insulin were calculated from plotted standard curves. All results were expressed as Mean±SEM. The intergroup variation was measured by one-way analysis of variance (ANOVA) followed by Tukey's test. Statistical significance was considered at P<0.05. The statistical analysis was done using the SPSS Statistical Software version 16 (SPSS Inc. 233 South Wacker Drive, 11th Floor Chicago, IL 60606-6412).

## CCc1ccc(CCOc2ccc(CC3SC(=O)NC3=O)cc2)nc1 (stereo not drawn) [Pio, Pioglitazone]
[1]; Day 1
  Glycosylated Hemoglobin: 6.66
[1]; Day 7
  Glycosylated Hemoglobin: 10.78
[1]; Day 14
  Glycosylated Hemoglobin: 9.67
[1]; Day 21
  Glycosylated Hemoglobin: 8.44
[1]; Day 28
  Glycosylated Hemoglobin: 7.96
[2]; Day 3
  Mean Plasma Glucose: 144 mg/dL
[2]; Day 7
  Mean Plasma Glucose: 149 mg/dL
[2]; Day 14
  Mean Plasma Glucose: 141 mg/dL
[2]; Day 21
  Mean Plasma Glucose: 132 mg/dL
[2]; Day 28
  Mean Plasma Glucose: 126 mg/dL

## Insulin
[3]; Day 1
  Percentage Change in plasma insulin: 0%
[3]; Day 7
  Percentage Change in plasma insulin: −42%
[3]; Day 14
  Percentage Change in plasma insulin: −39%
[3]; Day 21
  Percentage Change in plasma insulin: −37%
[3]; Day 28
  Percentage Change in plasma insulin: −34%
[4]; 6th Week
  Mean Plasma Glucose: 226 ± 12.4 mg/dL
[4]; 10th Week
  Mean Plasma Glucose: 233 ± 16.0 mg/dL
[4]; Day 1
  Food Intake: 21 ± 0.66 gm
  Mean Body Weight: 278 ± 3.7 gm
  Mean Plasma Glucose: 352 ± 42.4 mg/dL
  Urine Volume: 9 ± 0.63 mL
  Water Intake: 9 ± 0.95 mL
[4]; Day 7
  Food Intake: 23 ± 0.43 gm
  Mean Body Weight: 277 ± 4.4 gm
  Mean Plasma Glucose: 249 ± 5.7 mg/dL
  Urine Volume: 16 ± 1.91 mL
  Water Intake: 14 ± 0.85 mL
[4]; Day 14
  Food Intake: 27 ± 0.58 gm
  Mean Body Weight: 280 ± 3.9 gm
  Mean Plasma Glucose: 222 ± 14.1 mg/dL
  Water Intake: 20 ± 0.86 mL
[4]; Day 21
  Food Intake: 30 ± 0.56 gm
  Mean Body Weight: 279 ± 4.5 gm
  Mean Plasma Glucose: 233 ± 13.3 mg/dL
  Urine Volume: 26 ± 3.61 mL
  Water Intake: 25 ± 2.77 mL
[4]; Day 28
  Food Intake: 34 ± 0.93 gm
  Mean Body Weight: 279 ± 4.9 gm
  Mean Plasma Glucose: 211 ± 8.6 mg/dL
  Urine Volume: 26 ± 4.43 mL
  Water Intake: 31 ± 3.08 mL
[5]; 0.5 hour
  OGTT Mean Plasma Glucose: 389 ± 95.77 mg/dL
[5]; 2.0 hour
  OGTT Mean Plasma Glucose: 315 ± 102.13 mg/dL
[5]; 4.0 hour
  OGTT Mean Plasma Glucose: 311 ± 217.52 mg/dL
[5]; 8.0 hour
  OGTT Mean Plasma Glucose: 233 ± 29.73 mg/dL
